Laboratory results taken from patent US20100168112A1, “2-Substituted and 4-substituted aryl nitrone compounds” (RENOVIS, INC., priority 2004, published 2010).
pEC50: −log10 of the molar value.

Tests used:
[1] = DPPH free radical-scavenging/antioxidant assay; assay type: biochemical; conditions: 50 μM DPPH in 80% methanol; 24 h time point; read-out: EC50 (concentration at which a compound reduces by 50% the peak absorbance of DPPH at 520 nm)
Description: Nitrone compounds of the present invention were tested for their free-radical scavenging/antioxidant activity in an in vitro assay that is accepted by those skilled in the art as a model for conditions involving the generation of free radicals. The assay is based on a reaction between a free-radical donor, 2,2-diphenyl-1-picrylhydrazyl (DPPH), and a radical scavenger/antioxidant to be tested for free-radical scavenging activity. Upon donation of the free-radical electron to the purported radical scavenger, the peak visible absorbance of DPPH (515-520 nm) decreases so that optical density readings at this part of the visual spectrum reflect the progression of the following reaction:
where AH is a hypothetical radical scavenger/antioxidant. The assay is based on a protocol originally detailed in Brand-Williams, W. et al., 1995, Use of a Free Radical Method to Evaluate Antioxidant Activity, Lebensm. Wiss. Technol., 28:25-30, with further modifications described in L. R. Fukumoto and G. Mazza, 2000, Assessing Antioxidant and Prooxidant Activities of Phenolic Compounds, J. Agric. Food Chem., 48:3597-3604.
The antioxidant assay was performed using Perkin-Elmer 96-well, clear-bottom, black-wall plates (ordered from E & K Scientific Products) and a Tecan Safire absorbance plate reader. The positive controls were Trolox (6-hydroxy-2,5,7,8-tetramethylchromane-2-carboxylic acid, Sigma-Aldrich), BHA (2(3)-tert-butylhydroquinone monomethyl ether, Sigma-Aldrich), PBN (C-(phenyl)-N-(tert-butyl)nitrone, Sigma-Aldrich) and S-PBN (C-(2-sulfophenyl)-N-(tert-butyl)nitrone, sodium salt, prepared according to E. G. Janzen and R. V. Shetty, 1979, Tetrahedron Lett., 35: 3229-32), and the negative control (i.e., vehicle) was DMSO. In brief, 2 μL of 100× DMSO stock of the desired final concentration of each control or nitrone compound to be tested in the same batch was added to a separate well. To each well was then added 198 μL of a freshly made 50 μM DPPH (Sigma-Aldrich) solution in 80% methanol using a multi-channel pipette. The absorbance was immediately read on the plate reader at 520 nm and thereafter read periodically to assess kinetics until all reactions reached completion (i.e., steady state). Since the steady-state point was 24 h, the assay results are shown from the 24 h time point. The absorbance at 520 nm (OD) was plotted versus the concentrations of the controls and nitrone compounds to assess dose-response and interpolate the EC50 values of the controls and test compounds.

[2] = Microsomal stability in human liver microsomes; assay type: in vitro ADME; conditions: NADPH, 37° C.
Description: Frozen Sprague-Dawley rat liver microsomes (RLM) were thawed on ice and gently mixed before use. The final reaction mixture consisted of a nitrone compound of this invention (at ˜500 ng/ml), 1 mM NADPH, and 0.5 mg/ml of RLM protein in 0.1 M PBS (pH7.4), with organic solvent concentration not exceeding 1% (v/v). Per set of incubations, a positive control compound was included. The mixture was first pre-incubated 3 to 5 minutes at 37° C. without NADPH, and the reaction was then initialized by the addition of NADPH and incubated at 37° C. for up to 30 minutes. An aliquot of the reaction mixture was sampled at the initiation of the reaction and at designated time after reaction started. The drawn samples were quenched with acetonitrile, diluted with mobile phase to ensure the detection of test article in the linear range, and analyzed by LC/MS/MS. Half-life or percentage of remaining nitrone compound was calculated using standard methods. A similar method, or a slight variation of it, was used to test the stability of nitrones in human liver microsomes (HLM).

[3] = Pharmacokinetic evaluation following intravenous and oral administration in rats; assay type: in vivo; conditions: male, Sprague-Dawley; for Cmax / Tmax / bioavailability: 5 mg/kg; for Cmax: rat plasma; for Cmax / Tmax: oral gavage, 2 mg/mL at 2.5 mL/kg; for clearance / Vd / Tmax / bioavailability / half-life: plasma, rat; for clearance / Vd / half-life: 1 mg/kg; for clearance / Vd: intravenous administration, 1 mg/mL at 1.0 mL/kg; for clearance: read-out: CI (clearance) (converted); for Vd: read-out: Vd (volume of distribution); for bioavailability: po 2 mg/mL at 2.5 mL/kg vs iv 1 mg/mL at 1.0 mL/kg, dose-normalized, read-out: F (%) oral bioavailability; for half-life: intravenous, read-out: T1/2 elimination half life (converted)
Description: Male Sprague-Dawley rats were given at least 24 hours acclimation before experiment initiation. During acclimation period, all animals received food and water ad libitum. However, food (not water) was removed from the animal's cages up to 12 hours before initiation of the experiment. During the first 4 hours of experimentation, the animals received only water ad libitum. Two to three animals for iv and three animals for oral administration were tested. For iv formulation nitrone compounds of this invention were dissolved (1 mg/mL) in a mixture of 5% dimethyl acetamide (v/v), 0 to 4% Tween 80 (v/v), 10 to 40% PEG 400 (v/v) and the rest percentage of water (v/v). For oral formulation nitrone compounds of this invention were dissolved (2 mg/mL) in a mixture of 4% of 10% Tween in water and 96% of 0.5% carboxymethyl cellulose (medium viscosity) in water; or 4% of 10% Tween in water, 48% of 0.5% carboxymethyl cellulose (medium viscosity) in water, and 48% of 0.5% Hydroxypropyl Methylcellulose/0.2% Sodium Lauryl Sulfate in water. These formulations were stored at 5° C. until the experiment. Formulations were then stir-mixed at least half an hour before dosing. Exactly 200 μL of each left-over formulation was diluted with CH3CN/H2O for concentration analysis. The animals were weighed before dosing. The body weight was used to calculate the true dose for each animal:
IV dosing: • Dose volume (mL)=1.0 mL/kg The intravenous dose was administered through the jugular vein catheter or tail vein in less than 1 minute.
PO dosing: • Dose volume (mL)=2.5 mL/kg The oral dose was administered by oral gavage.
For IV dosing, blood samples were collected (using a pre-heparinized syringe) via the carotid artery or jugular vein catheter at t=2, 5, 15, 30, 60, 120, 180, 360, and 480 minutes post dosing. For PO dosing, blood samples were collected (using a pre-heparinized syringe) via the carotid artery or jugular vein catheter before dosing and at t=5, 15, 30, 60, 120, 180, 360, and 480 minutes post dosing. For some nitrone compounds a 1440 minutes (24 hours) sample was also taken for both IV and PO administrations. About 250 μL of blood was obtained at each time point from the animals. Equal volumes of 0.9% normal saline were replaced to prevent dehydration. The whole blood samples were maintained on ice until centrifugation. Blood samples were then centrifuged at 14,000 rpm for 10 minutes at 4° C. and the upper plasma layer transferred into a clean vial and stored at −80° C. The resulting plasma samples were then analyzed by mass spectroscopy using standard methods.
All the samples from above assays were analyzed on a PE-Sciex API 3000 triple quadrupole with a Turbo Ion Spray source. Nitrone compounds of this invention were separated from the matrix via a linear gradient reverse-phase chromatography using a C18 column, such as Thermo BDS Hypersil C18 (100×4.6 mm, 5 micron particle, 120A pore size). The mobile Phases were:
Nitrone compounds were detected by the mass spectrometer in the positive ion multiple reaction monitoring mode (MRM). For quantitative analysis, a standard curve was prepared by spiking a stock solution of the nitrone compound to the appropriate matrix to achieve a quantitation curve range and analyzed the standards in the same manner as the samples.
Pharmacokinetic parameters of the aryl nitrone compounds were determined by a noncompartmental analysis using WinNonlin-Pro (Version 4.1, Pharsight Corporation). Average and standard deviation of the parameters were calculated using standard formulas in Microsoft Excel.

pEC50 [1] | % of Nitrone Remaining at 30 min (Human) [2] | Cmax [3] | clearance [3] | Vd [3] | Tmax [3] | bioavailability [3] | half-life [3] | Structure (SMILES)
< 3.00 | 0% |  |  |  |  |  |  | CC(C)(C)/[N+]([O-])=C/c1ccccc1S(=O)(=O)NCc1ccccc1 [Compound 49, N-tert-Butyl-C-(2-benzylsulfamoyl-phenyl)nitrone]
< 3.00 | 100% |  |  |  |  |  |  | CNS(=O)(=O)c1ccccc1/C=[N+](\[O-])C(C)(C)C [Compound 47, N-tert-Butyl-C-(2-methylsulfamoyl-phenyl)nitrone]
 | 65% |  |  |  |  |  |  | CCN(CC)S(=O)(=O)c1ccc(/C=[N+](\[O-])Cc2ccccc2)cc1 [Compound 53, N-Benzyl-C-(4-diethylsulfamoylphenyl)nitrone]
< 3.00 | 100% |  |  |  |  |  |  | CC(C)(C)NS(=O)(=O)c1ccc(/C=[N+](\[O-])C(C)(C)C)cc1 [Compound 58, N-tert-Butyl-C[4-(tert-butylsulfamoyl)phenyl]nitrone]
< 3.00 | 100% |  |  |  |  |  |  | CC(C)/[N+]([O-])=C/c1ccc(S(=O)(=O)NC(C)(C)C)cc1 [Compound 59, N-Isopropyl-C-[4-(tert-butylsulfamoyl)phenyl]nitrone]
 | 90.5% |  |  |  |  |  |  | CS(=O)(=O)c1ccc(/C=[N+](\[O-])Cc2ccccc2)cn1 [Compound 81, N-Benzyl-C-(6-methanesulfonyl-pyridine-3-yl)nitrone]
< 3.00 | 94% |  |  |  |  |  |  | CCN(CC)S(=O)(=O)c1ccc(/C=[N+](\[O-])C(C)C)cc1 [Compound 51, N-Isopropyl-C-(4-diethylsulfamoylphenyl)nitrone]
 | 82% |  |  |  |  |  |  | CC(C)/[N+]([O-])=C/c1ccc(S(=O)(=O)N(C)c2ccccc2)cc1 [Compound 55, N-Isopropyl-C-[4-(methyl-phenyl-sulfamoyl)phenyl]nitrone]
< 3.00 | 100% | 862 ng/mL | 32.8 mL/min/kg | 1.39 L/kg | 15 min | 55.3% | 29.4 min | CC(C)(C)NS(=O)(=O)c1ccccc1/C=[N+](\[O-])C(C)(C)C [Compound 48, N-tert-Butyl-C-(2-tert-butylsulfamoyl-phenyl)nitrone]
< 3.00 | 62% | 180 ng/mL | 35.8 mL/min/kg | 3.21 L/kg | 15 min | 13.2% | 61.8 min | CN(c1ccccc1)S(=O)(=O)c1ccc(/C=[N+](\[O-])C(C)(C)C)cc1 [Compound 54, N-tert-Butyl-C44-(methyl-phenyl-sulfamoyl)phenylInitrone]
< 3.00 | 14% |  |  |  |  |  |  | CN(c1ccccc1)S(=O)(=O)c1ccc(/C=[N+](\[O-])Cc2ccccc2)cc1 [Compound 57, N-Benzyl-C-[4-(methyl-phenyl-sulfamoyl)phenyl]nitrone]
 | 64% |  |  |  |  |  |  | CCN(CC)S(=O)(=O)c1ccc(/C=[N+](\[O-])C2CCCCC2)cc1 [Compound 52, N-Cyclohexyl-C-(4-diethylsulfamoylphenyl)nitrone]
< 3.00 | 86% |  |  |  |  |  |  | CCN(CC)S(=O)(=O)c1ccc(/C=[N+](\[O-])C(C)(C)C)cc1 [Compound 50, N-tert-Butyl-C-(4-diethylsulfamoylphenyl)nitrone]
< 3.00 | 33% |  |  |  |  |  |  | CN(c1ccccc1)S(=O)(=O)c1ccc(/C=[N+](\[O-])C2CCCCC2)cc1 [Compound 56, N-Cyclohexyl-C-[4-(methyl-phenyl-sulfamoyl)phenyl]nitrone]
 | 94.5% | 3940 ng/mL | 3.5 mL/min/kg | 0.52 L/kg | 30 min | 54.7% | 103 min | CC(C)(C)/[N+]([O-])=C/c1ccc(S(C)(=O)=O)nc1 [Compound 80, N-tert-Butyl-C-(6-methanesulfonyl-pyridine-3-yl)nitrone]
< 3.00 | 95% |  |  |  |  |  |  | CC(C)(C)NS(=O)(=O)c1ccc(/C=[N+](\[O-])Cc2ccccc2)cc1 [Compound 61, N-Benzyl-C-[4-(tert-butylsulfamoyl)phenyl]nitrone]
< 3.00 | 100% | 1.59 ng/mL | 63.3 mL/min/kg | 2.84 L/kg | 8.4 min | 0.4% | 30.6 min | CC(C)(C)NS(=O)(=O)c1ccc(/C=[N+](\[O-])C2CCCCC2)cc1 [Compound 60, N-Cyclohexyl-C-[4-(tert-butylsulfamoyl)phenyl]nitrone]
